The results in this text go back to US20230406849A1, “KRAS INHIBITORS FOR TREATMENT OF CANCERS” (TYLIGAND BIOSCIENCE (SHANGHAI) LIMITED, priority 2020, published 2023).

Series [1] deals with human non-small cell lung cancer NCI-H358 xenograft. As to the kind of experiment: Antitumor activity in NCI-H358 xenograft mouse model. The class given is in vivo, NPSG mice. The following applies: for TGI(%) / Tumor volume (mm^3) (day 14): NPSG mice, gavage once daily 10 mg/kg, day 14. The procedure: Tumor growth inhibitory activity of the compounds of the present disclosure was evaluated and verified in a human non-small cell lung cancer NCI-H358 xenograft mouse model.
[Test materials]: NCI-H358 cell line carrying KRAS G12C mutation, provided by KYinno Biotechnology Co., Ltd. (from ATCC, Cat #CRL-5807). NPSG mice, female, provided by Beijing Phenotek Biotechnologies Inc.
[Experimental procedure]: 5×10^6 NCI-H358 cells (containing 50% Matrigel) were inoculated subcutaneously on the right flank of 6-8 weeks old female NPSG mice, with the inoculation volume of 0.1 mL. When the average tumor size reached 160-220 mm^3, the mice were grouped randomly according to tumor size and body weight, upon which the mice were treated with compounds on the same day designated as Day 0. The mice were gavage administrated once daily at 10 mg/kg or solvent control (50 mM citrate buffer containing 10% cyclodextrin, pH5.0). Tumor volume and body weight were measured twice a week during the study. The tumor volume was calculated by the formula V=D×d×d/2, wherein D and d refer to the long and short diameter of the tumor respectively.
In addition, using the same materials and procedures as above, the tumor inhibition activity of Example 9 at different doses in the above-mentioned non-small cell lung cancer mouse model and its effect on body weight were also investigated.

The subject of series [2] is human non-small cell lung cancer cells NCI-H358 with KRas G12C mutation. As to the kind of experiment: NCI-H358 cell proliferation, CellTiter-Glo Luminescent Cell Viability Assay. The following applies: for inhibition at 1 µM: 1 μM compound, read-out: Inhibition rate % (1 μM). The class given is cell-based. From the text:
This assay verified the inhibitory activity of the compounds of the present disclosure on the proliferation of human non-small cell lung cancer cells NCI-H358 with KRas G12C mutation by using Promega's CellTiter-Glo® Luminescent Cell Viability Assay kit.
[Test materials]: NCI-H358 cell line (Cell Resource Center, IBMS, CAMS/PUMC, Item number: 3111C0001CCC000470), 96-well transparent flat-bottomed black-walled cell culture plate (Greiner Bio one, Cat #655096), RPMI-1640 Medium (GE, Cat #SH30809.01), Fetal Bovine Serum FBS (Thermo Fisher, Cat #10099-141), CellTiter-Glo® Luminescent Cell Viability Assay Kit (Promega, Cat #G7573), PBS (Solarbio, Cat #P1020), Trypsin (Thermo Fisher, Cat #25200072), DMSO (Sigma, Cat #D2650), Methyl cellulose (SIGMA, Cat #9004-67-5).
[Experimental procedure]: 180 μL of cell suspension (RPMI1640 solution with 10% FBS and 1% methyl cellulose) was charged to a 96-well cell culture plate at a density of 1500 cells/well. A control group containing no cells, no compounds and only 3D complete medium (RPMI 1640 solution with 1! Methyl cellulose and 10% FBS) (i.e. culture medium control) and a control group containing no compounds but cells (i.e. cell control) were set. AMG510 or the following reference compounds were used as positive controls. The cell plate was placed in a cell incubator overnight. A 10-fold drug solution (RPMI1640 solution with 10% FBS and 1% DMSO) was prepared at a concentration of 10 μM, and 20 μL of this solution was added to each well of the 96-well plate seeded with cells, so that the final concentration of the compounds in each well was 1 μM, and the DMSO concentration […] replicate wells were set up for each compound. The solutions of AMG510 or the following reference compounds were prepared in the same way and added to the positive control wells. The cell plate was placed in a cell incubator and cultured for 120 h. For endpoint detection, the CellTiter-Glo reagent was melted, and the cell plate was moved to room temperature to equilibrate for 30 minutes, added with 100 µL of CellTiter-Glo to each well, and shaken on an orbital shaker for 5 minutes to fully lyse the cells. The plate was kept at room temperature for 20 minutes to stabilize the luminescence signal, and the luminescence value of each well was full wavelength scanned with a multi-functional microplate reader (Molecular Devices, Spectramax M3 microplate reader).
[Test samples] The compounds of Examples 1-39, and reference compound A
[Data Analysis] The following formula was used to calculate the cell inhibition rate under the action of each concentration of the compounds:
Inhibition rate %=[1−(LumDrug to be tested−LumCulture medium control)/(LumCell control−LUMCulture medium control)]×100%
IC50 values were calculated using GraphPad Prism 7.0 software, nonlinear Sigmoidal regression was used to fit the data to obtain a dose-response curve.

Like-named read-outs stand apart in the source and are kept apart here.

On to `C=CC(=O)N1CCN(c2c(C#N)cnc3c(F)c(-c4ccc(F)c5sc(N)nc45)c(Cl)cc23)C[C@H]1C` [Example 8, 4-((R)-4-acryloyl-3-methylpiperazin-1-yl)-7-(2-amino-7-fluorobenzo[d]thiazol-4-yl)-6-chloro-8-fluoroquinoline-3-carbonitrile], for which, in series [1], the “TGI(%)” value amounted to 67% and the “Tumor volume (mm^3) (day 14)” value came out at 519.2 mm^3. Further, the inhibition at 1 µM in series [2] (120 h) was determined as 94%. For the same molecule, the IC50 in series [2] (120 h, read-out: IC50) is 18 nM. Moreover, the 50% inhibitory concentration (IC50) in series [2] (read-out: IC50 value) is under 20 nM.
On to `C=CC(=O)N1CCN(c2c(C#N)cnc3c(F)c(-c4ccc(F)c5sc(N)nc45)c(Cl)cc23)CC1` [Example 9, 4-(4-Acryloylpiperazin-1-yl)-7-(2-amino-7-fluorobenzo[d]thiazol-4-yl)-6-chloro-8-fluoroquinoline-3-carbonitrile], for which, in series [1] (different doses, FIG. 1), the “effect on body weight” value is recorded as “without significant side effects on body weight” and the tumor inhibition activity entry is given as “excellent tumor inhibition activity”. In series [2] (120 h), the inhibition at 1 µM worked out at 98.8%. The IC50 in series [2] (120 h, read-out: IC50) was 8.6 nM. Besides, the IC50 in series [2] (read-out: IC50 value) is under 20 nM.
Turning to `C=CC(=O)N1CCN(c2ncnc3c(F)c(-c4ccc(F)c5sc(N)nc45)c(Cl)cc23)CC1` [Ref. Comp. A, reference compound], the inhibition at 1 µM in series [2] (120 h) came out at 96.9%. Moreover, the IC50 in series [2] (120 h, read-out: IC50) stood at 11 nM.
With `C=CC(=O)N1CCN(c2nc(=O)n(-c3c(C)ccnc3C(C)C)c3nc(-c4c(O)cccc4F)c(F)cc23)[C@@H](C)C1` (atropisomer, axis not shown) [AMG510, reference compound], in series [1], the “TGI(%)” value came out at 66% and the “Tumor volume (mm^3) (day 14)” value came to 525.1 mm^3.
